From patent US9125898B2, “Acetam derivatives for pain relief” (NEUROTUNE AG, priority 2008, dated 2015)

Assays:
[1] = system: ddC induced mechanical allodynia in rats; experiment: ddC induced mechanical allodynia in rats, von Frey test; format: in vivo, rat; conditions: FIG. 4; 15 min after drug administration
Description: Painful peripheral NP may be induced in rats by i.v. administration of 2′,3′-dideoxycytidine (ddC) mimicking what is seen in AIDS patients undergoing antiviral therapy. The ddC test represents a useful and predictive model to study molecules with analgesic potential in human neuropathic states.
Adult male SD rats (Harlan, Italy, 150-200 g weight) were used. Animals were treated with 25 mg/kg i.v. bolus of 2′,3′-dideoxycytidine, an inhibitor of nucleoside reverse transcriptase used for AIDS therapy that in rodents induces a peripheral neuropathy resulting in allodynic responses to mechanical stimuli. Symptoms severity peaks between 5 to 10 days after administration (Joseph, E. K. et al. —Pain 107 (2004) 147-158). Ten days after administration of ddC, as an intravenous (i.v.) bolus, test substances were administered every day, once a day or b.i.d for 4 weeks. Dosing was withheld in those days in which allodynic tests were performed, and lasted for 24 h and 48 h.
NT-11624 was dissolved in distilled water and was orally by gavage administered as follows • Group 1: 100 mg/kg b.i.d. for 14 days, followed by 50 mg/kg b.i.d. for 7 days, then 50 mg/kg u.i.d. for 7 days. • Group 2: 50 mg/kg b.i.d. for 28 days.
Pregabalin (3B Pharmachem (Wuhan) International Co.) was dissolved in 1% CMC (carboxymethylcellulose) and orally administered at the dose of 15 mg/kg b.i.d. for 28 days.
Thresholds for mechanical allodynia were measured using an electronic Von Frey apparatus. […] After 4 week drug administration, additional tests were performed beyond the 60 min point, at 4, 8, 24, 48 and 56 h. Results represent the mean (±S.E.M.) of mechanical thresholds expressed in grams.
Drugs: The following substance was used: NT-11624 (batch No. 0000104580 supplied by Brane Discovery Srl, Gerenzano Italy). NT-11624 was dissolved in distilled water and given p.o. every day, except in those days in which allodynic tests were performed and lasted for 24 h, 48 h and 56 h (i.e. days 1, 3, 7, 10, 14, 21, 28).
The following groups of treatment were utilized: • NT-11624 (Group 1): rats received 100 mg/kg b.i.d. of NT-11624 for 14 days, then 50 mg/kg b.i.d. for 7 days, then 50 mg/kg u.i.d. for 7 days. • NT-11624 (Group 2): rats received 50 mg/kg b.i.d. for 28 days • Pregabalin: rats received 15 mg/kg b.i.d. for 28 days
Administration volume was 10 ml/kg body weight. Pregabalin [3B Pharmachem (Wuhan), International Co] was dissolved in CMC 1% (carboxymethylcellulose, Sigma-Aldrich, Italy), and orally given as described before. Control rats received vehicle only.
ddC intravenous injection: ddC was dissolved in saline to a concentration of 25 mg/kg (1 ml) and was administered i.v. into the rat tail vein. Control rats were treated with an equal volume of saline i.v.
The administration of ddC produces dose-dependent mechanical hypersensitivity and allodynia peaking in severity between 5-10 days after the administration. The test is usually performed at day 10.
Von Frey test: Each animal was placed in a chamber with a mesh metal floor covered by a plastic dome that enabled the animal to walk freely, but not to jump. The mechanical stimulus was then delivered in the mid-plantar skin of left hind paw using an electronic Von Frey apparatus (37400 Dynamic Plantar Aesthesiometer; Ugo Basile, Comerio, Varese, Italy). The cut-off was fixed at 50 g, while the increasing force rate (ramp duration) was settled at 20 sec. […] At day 28, additional tests were performed at 4, 8, 24, 48 and 56 h after drug administration. Results represent the mean (±S.E.M.) of mechanical thresholds expressed as grams.

[2] = system: chronic constriction injury induced hyperalgesia in the rat; experiment: Chronic constriction injury induced hyperalgesia in the rat (paw-pressure test); format: in vivo; conditions: for Paw pressure, pre-test before all treatments: baseline, drug 100 mg/kg p.o.; for Paw pressure, 5 day 30 min / Paw pressure, 10 day 30 min / Paw pressure, 14 day 30 min / Paw pressure, 14 day 4 h / Paw pressure, 14 day 8 h / Paw pressure, 15 day 24 h / Paw pressure, 18 day 3 days: 100 mg/kg p.o. once a day for 14 days
Description: In the repeated administration protocol, NT-13317 was orally administered at 100 mg/kg in 1% CMC once a day for 14 days starting from the day of sciatic nerve ligation.
Peripheral rat mononeuropathy (Chronic constriction injury): Neuropathy was induced according to the procedure described by Bennett and Xie (Bennett G J, Xie Y K. A peripheral mononeuropathy in rat that produces disorders of pain sensation like those seen in man. Pain 1988; 33: 87-107).
Briefly, rats were anaesthetized with chloral hydrate 400 mg/kg intraperitoneally (i.p.); under aseptic conditions, the right common sciatic nerve was exposed at the level of the middle thigh by blunt dissection. Proximal to the trifurcation, the nerve was carefully freed from the surrounding connective tissue and four chromic cat gut ligatures (4-0, Ethicon, Norderstedt, Germany) were tied loosely around it with about 1 mm spacing. After haemostasis was confirmed, the incision was closed in layers. Then animals were allowed to recover from anaesthesia and surgery and were kept one per cage with free access to water and standard laboratory chow.
Statistical analysis: All experimental results are given as the mean±S.E.M. An analysis of variance, ANOVA, followed by Fisher's protected least significant difference procedure for post hoc comparison, were used to verify significance between two means of behavioural results. Data were analyzed with the StatView software for the Macintosh (1992). P values≦0.05 were considered significant.
Data of mechanical threshold (PWT) were converted to a percentage of the maximal possible effect (% MPE), according to Veneroni, O. et al. as follows: %MPE=(left dose PWT−left pre-dose control PWT)/(left naïve PWT−left pre-dose PWT)*100
The obtained % MPE were employed for ED50 calculation (obtained by Grafit v. 5.0), defined as the dose producing 50% reversal of mechanical allodynia.

SMILES: NCC1(CC(=O)O)CCCCC1 [GABAPENTIN, Gabapentin, reference compound]
- Reversal of ddC-induced neuropathy (mechanical threshold, von Frey) [1]: not
- Paw pressure, pre-test before all treatments ([2]; CCI group): 62.9 ± 3.3 g
- Paw pressure, 5 day 30 min ([2]; CCI): 52.4 ± 4.6 g
- Paw pressure, 10 day 30 min ([2]; CCI): 52.7 ± 5.6 g
- Paw pressure, 14 day 30 min ([2]; CCI): 56.7 ± 6.2 g
- Paw pressure, 14 day 4 h ([2]; CCI): 57.1 ± 5.5 g
- Paw pressure, 14 day 8 h ([2]; CCI): 62.3 ± 6.5 g
- Paw pressure, 15 day 24 h ([2]; CCI): 59.6 ± 5.7 g
- Paw pressure, 18 day 3 days ([2]; CCI): 58.2 ± 5.5 g
- Paw pressure, pre-test before all treatments ([2]; SHAM group): 61.8 ± 2.9 g
- Paw pressure, 5 day 30 min ([2]; SHAM): 63.2 ± 4.1 g
- Paw pressure, 10 day 30 min ([2]; SHAM): 69.2 ± 5.1 g
- Paw pressure, 14 day 30 min ([2]; SHAM): 71.2 ± 6.3 g
- Paw pressure, 14 day 4 h ([2]; SHAM): 69.2 ± 5.6 g
- Paw pressure, 14 day 8 h ([2]; SHAM): 70.4 ± 5.9 g
- Paw pressure, 15 day 24 h ([2]; SHAM): 68.5 ± 5.8 g
- Paw pressure, 18 day 3 days ([2]; SHAM): 66.4 ± 4.8 g
- Effect on paw pressure test after the last administration (in words) ([2]; p.o. 100 mg/kg once a day for 14 days from the day of sciatic nerve ligation): still active after 72 hr
